Test results taken from patent publication US20260306641A1, “HELICASE DEGRADERS” (priority 2023, published 2026).

What was measured:
HSP90 = settings: cited from earlier work
HaCaT cells = experiment: CellTiter-Glo viability, HaCaT cells; type: cell-based, human; settings: 72 hr
Experimental: Human keratinocytes (HaCaT; RRID:CVCL_0038), 143B cells (osteosarcoma; RRID:CVCL_2270), and HEK-293T (RRID:CVCL_0063) cells were maintained in Dulbecco's Modified Eagle's Medium (DMEM) supplemented with 10% fetal bovine serum (FBS; Peak Serum, PS-FB-2). Human Psn1 (pancreatic ductal adenocarcinoma; RRID:CVCL_1644) and H460 (non-small cell lung carcinoma; RRID:CVCL_0459) cells were cultured in RPMI-1640 medium supplemented with 10% FBS. HaCaT cells were synchronized in Go using serum starvation for 48 hr and released into the cell cycle by addition of DMEM with 10% FBS (51). Novobiocin (cat #46531) and Courmermycin-A1 (cat #C9270) were obtained from Sigma. Etoposide (cat #S1225) and AT7519 (cat #S1524) were obtained from SelleckChem. All stock solutions of inhibitors were stored at −20° C. as 10 mM suspensions in DMSO.
Cell viability determinations were performed using CellTiter-Glo Assays (Promega; cat #G7572). Cells were seeded in 96-well plates at a density of ~3×10^3 cells/well and treated with drugs for 72 hr, after which the cells were processed for viability using CellTiter-Glo reagent according to the instructions of the manufacturer. Each drug concentration test was performed using four replicates, and results averaged and plotted on graphs, +/−1 s.d.

[1] = tested on: T1, human CMG helicase (hCMG); experiment: hCMG helicase fork-unwinding (strand displacement) assay; type: biochemical
T1 construct: made in house; host or cells: High Five insect cells, baculovirus (11 viruses co-infected)
Experimental: The human CMG helicase was purified following the established and validated protocol of Hurwitz and colleagues(19,20), with minor modifications. A detailed description of the approach is shown here, to allow for comparisons to the methods described by the Hurwitz group.
High Five insect cells (2-3 million cells/ml, 1.5 L), were in cultured in a shaking incubator at 27° C. in suspension with ESF921 serum free medium (Expression Systems, CA; cat. #96-001-01), then co-infected for 60 hrs with 11 baculoviruses expressing human 6His2Flag-Cdc45, the human MCM hexamer (Mcm2, Mcm3, Mcm4, Mem5, Mcm6, Mcm7), and human GINS (GST-Sld5, Psf3, Psf2, and Psf1). Each virus was infected at an MOI of ~10 from individual virus stocks. Infected cells were harvested by centrifugation at 650×g for 5 min at 4° C., washed with cold PBS, frozen on dry ice, and stored at −80° C. until use. The cell pellet (~20 mL) was thawed on ice, resuspended in 45 ml Hypotonic Buffer [20 mM Hepes-NaOH (pH 7.5), 5 mM KCl, 1.5 mM MgCl2] with protease inhibitors (1 mM [COMPOUND LEFT OUT], 1 mM Benzamidine, 0.15 μM Aprotinin, 4 μM Leupeptin, and 1 μM Antipain), and kept on ice for 10 min before lysing by Dounce homogenization (tight fitting, 60 strokes). The cell extract was adjusted to 0.42 M potassium acetate and centrifuged at 43,000×g for 1 hr at 4° C. The cleared lysate was mixed with 0.75 ml glutathione beads (cat. #17-0756-05; GE Healthcare) pre-equilibrated with FEQ buffer [20 mM Hepes-NaOH (pH 7.5), 0.42 M potassium acetate, 5 mM KCl, 1.5 mM MgCl2] and incubated by rotation at 4° C. overnight. Following centrifugation at 290×g at 4° C., the bound glutathione beads were washed four times (15 min each wash) with 40 ml of FW buffer [20 mM Hepes-NaOH (pH 7.5), 0.42 M potassium acetate, 1 mM DTT, 1 mM EDTA, 0.01% NP40, 10% glycerol (vol/vol) with protease inhibitors as above] containing protease inhibitors (as above). Bound proteins were eluted at 4° C. three times (1 hr each elution) with 3.5 ml Q buffer [20 mM Hepes-NaOH (pH 7.5), 1 mM DTT, 1 mM EDTA, 0.01% NP40, 10% glycerol (vol/vol), and protease inhibitors as above] containing 0.15 M potassium acetate and 20 mM reduced glutathione. The eluted fractions were combined and applied to a HiTrap Q-Sepharose FF column (HiTrap Q FF 1 mL, cat. #17505301, Cytiva), pre-equilibrated 3× with 5 ml of Q buffer containing 0.15 M, 0.75 M, 0.15M potassium acetate, in sequence. The Q-Sepharose FF column was washed with 10 ml of FW buffer containing protease inhibitors (as above). The proteins were eluted with 10 ml of Q buffer containing 0.75 M potassium acetate. The eluted fraction was mixed with 0.15 ml of anti-Flag M2 affinity gel/beads and incubated while rotating at 4° C. overnight. After centrifugation at 290×g for 5 min at 4° C., the beads were washed three times with 10 ml PreScission buffer [50 mM Tris-HCl (pH 7.5), 0.15 M NaCl, 1 mM DTT, 1 mM EDTA] for 15 min at 4° C., and eluted at 4° C. three times (1 hr each elution) with 0.2 ml PreScission enzyme buffer containing 0.2 mg/ml 3×-Flag peptides. The combined eluates were incubated with 20 Units of PreScission Protease (GE Healthcare) and 0.1 mL glutathione beads for 4 hr at 4° C. The supernatant was layered onto a 15-40% glycerol gradient [25 mM Tris-HCl (pH 7.5), 50 mM NaCl, 1 mM DTT, 1 mM EDTA, 0.01% NP40, protease inhibitors as above] in a 5 mL ultra-centrifugation tube and centrifuged at 260,000×g for 14 hr at 4° C. Glycerol fractions (0.15 mL each fraction) were collected from bottom of tube and stored at −80° C. until use. Typically, fractions 6-9 contained complete hCMG (~750-800 kDa) and co-migrated with thyroglobulin.
Helicase fork-unwinding assays were performed at 37° C. for 1 hr in 20 μL reaction volumes using 2-4 μl of hCMG (~15-30 fmol), in a buffer consisting of 25 mM Hepes-NaOH (pH 7.5), 5 mM NaCl, 0.5 mM ATP, 10 mM magnesium acetate, 1 mM DTT, 0.1 mg/ml bovine serum albumin (BSA), and ~10 fmol of radiolabeled DNA forks (20). […]

T1 sequence (P49736 whole entry): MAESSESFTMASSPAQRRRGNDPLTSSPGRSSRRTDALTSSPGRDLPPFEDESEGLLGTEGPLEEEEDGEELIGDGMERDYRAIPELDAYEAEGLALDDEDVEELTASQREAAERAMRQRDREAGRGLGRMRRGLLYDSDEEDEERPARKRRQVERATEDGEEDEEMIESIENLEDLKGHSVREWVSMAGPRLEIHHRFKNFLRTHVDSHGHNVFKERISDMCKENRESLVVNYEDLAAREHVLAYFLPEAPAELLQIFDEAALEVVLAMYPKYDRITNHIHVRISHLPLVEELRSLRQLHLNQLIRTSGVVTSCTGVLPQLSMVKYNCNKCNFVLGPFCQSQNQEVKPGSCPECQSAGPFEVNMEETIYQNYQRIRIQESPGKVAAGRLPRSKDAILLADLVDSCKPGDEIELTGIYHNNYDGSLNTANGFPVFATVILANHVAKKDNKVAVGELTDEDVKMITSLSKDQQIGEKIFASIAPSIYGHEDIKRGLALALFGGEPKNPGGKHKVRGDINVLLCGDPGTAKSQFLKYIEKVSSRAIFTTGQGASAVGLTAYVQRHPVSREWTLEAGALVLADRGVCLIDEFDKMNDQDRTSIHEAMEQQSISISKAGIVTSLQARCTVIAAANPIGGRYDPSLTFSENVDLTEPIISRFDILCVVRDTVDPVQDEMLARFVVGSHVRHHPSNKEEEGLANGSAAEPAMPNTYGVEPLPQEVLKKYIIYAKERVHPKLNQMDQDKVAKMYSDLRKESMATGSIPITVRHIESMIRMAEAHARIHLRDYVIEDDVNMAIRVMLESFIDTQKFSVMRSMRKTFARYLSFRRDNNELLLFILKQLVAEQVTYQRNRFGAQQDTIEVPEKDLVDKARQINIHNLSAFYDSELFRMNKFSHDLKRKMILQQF
T1 sequence (P25205 whole entry, further chain): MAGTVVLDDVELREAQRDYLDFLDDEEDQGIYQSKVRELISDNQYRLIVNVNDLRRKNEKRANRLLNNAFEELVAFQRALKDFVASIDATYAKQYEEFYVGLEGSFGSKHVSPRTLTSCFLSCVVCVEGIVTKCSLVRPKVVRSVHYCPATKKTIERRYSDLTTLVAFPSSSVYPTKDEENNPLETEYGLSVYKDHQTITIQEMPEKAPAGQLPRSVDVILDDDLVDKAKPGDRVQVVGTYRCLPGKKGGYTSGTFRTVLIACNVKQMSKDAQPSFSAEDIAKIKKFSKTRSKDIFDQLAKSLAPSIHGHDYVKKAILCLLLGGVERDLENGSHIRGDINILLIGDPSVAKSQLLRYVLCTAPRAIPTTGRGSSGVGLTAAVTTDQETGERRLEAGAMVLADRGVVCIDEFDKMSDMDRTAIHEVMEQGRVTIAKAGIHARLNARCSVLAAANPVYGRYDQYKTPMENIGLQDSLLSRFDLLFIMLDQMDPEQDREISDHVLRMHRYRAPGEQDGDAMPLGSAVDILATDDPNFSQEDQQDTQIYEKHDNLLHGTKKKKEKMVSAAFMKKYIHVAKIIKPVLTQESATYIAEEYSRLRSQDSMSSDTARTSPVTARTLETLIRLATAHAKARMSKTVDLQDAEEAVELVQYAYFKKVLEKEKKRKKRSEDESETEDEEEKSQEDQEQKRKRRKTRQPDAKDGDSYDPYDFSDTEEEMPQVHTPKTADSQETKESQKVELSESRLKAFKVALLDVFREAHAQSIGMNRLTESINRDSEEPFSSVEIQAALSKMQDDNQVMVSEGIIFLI
T1 sequence (P33991 whole entry, further chain): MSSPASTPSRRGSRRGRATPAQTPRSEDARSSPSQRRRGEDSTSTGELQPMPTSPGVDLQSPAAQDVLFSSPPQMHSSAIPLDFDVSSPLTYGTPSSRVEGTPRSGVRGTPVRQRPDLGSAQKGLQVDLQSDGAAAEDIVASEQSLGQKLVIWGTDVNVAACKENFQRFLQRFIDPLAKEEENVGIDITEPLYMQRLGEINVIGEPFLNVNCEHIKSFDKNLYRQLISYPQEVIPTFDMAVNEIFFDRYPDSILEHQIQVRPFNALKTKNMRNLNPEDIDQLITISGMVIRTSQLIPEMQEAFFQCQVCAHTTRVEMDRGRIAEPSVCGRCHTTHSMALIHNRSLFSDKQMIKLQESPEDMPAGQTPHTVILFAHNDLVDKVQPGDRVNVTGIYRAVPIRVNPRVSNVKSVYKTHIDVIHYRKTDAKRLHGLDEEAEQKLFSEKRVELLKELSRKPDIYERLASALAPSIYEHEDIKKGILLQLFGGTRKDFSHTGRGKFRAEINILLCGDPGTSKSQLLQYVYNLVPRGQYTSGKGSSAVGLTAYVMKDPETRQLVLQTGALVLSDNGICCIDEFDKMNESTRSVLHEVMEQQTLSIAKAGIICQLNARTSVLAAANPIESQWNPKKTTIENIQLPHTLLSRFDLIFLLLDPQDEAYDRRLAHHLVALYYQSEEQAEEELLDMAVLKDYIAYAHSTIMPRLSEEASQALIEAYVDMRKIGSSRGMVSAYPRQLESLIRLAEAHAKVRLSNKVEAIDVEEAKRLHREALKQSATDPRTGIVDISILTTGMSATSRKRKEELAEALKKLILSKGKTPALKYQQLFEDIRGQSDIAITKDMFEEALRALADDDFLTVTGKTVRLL
T1 sequence (P33992 whole entry, further chain): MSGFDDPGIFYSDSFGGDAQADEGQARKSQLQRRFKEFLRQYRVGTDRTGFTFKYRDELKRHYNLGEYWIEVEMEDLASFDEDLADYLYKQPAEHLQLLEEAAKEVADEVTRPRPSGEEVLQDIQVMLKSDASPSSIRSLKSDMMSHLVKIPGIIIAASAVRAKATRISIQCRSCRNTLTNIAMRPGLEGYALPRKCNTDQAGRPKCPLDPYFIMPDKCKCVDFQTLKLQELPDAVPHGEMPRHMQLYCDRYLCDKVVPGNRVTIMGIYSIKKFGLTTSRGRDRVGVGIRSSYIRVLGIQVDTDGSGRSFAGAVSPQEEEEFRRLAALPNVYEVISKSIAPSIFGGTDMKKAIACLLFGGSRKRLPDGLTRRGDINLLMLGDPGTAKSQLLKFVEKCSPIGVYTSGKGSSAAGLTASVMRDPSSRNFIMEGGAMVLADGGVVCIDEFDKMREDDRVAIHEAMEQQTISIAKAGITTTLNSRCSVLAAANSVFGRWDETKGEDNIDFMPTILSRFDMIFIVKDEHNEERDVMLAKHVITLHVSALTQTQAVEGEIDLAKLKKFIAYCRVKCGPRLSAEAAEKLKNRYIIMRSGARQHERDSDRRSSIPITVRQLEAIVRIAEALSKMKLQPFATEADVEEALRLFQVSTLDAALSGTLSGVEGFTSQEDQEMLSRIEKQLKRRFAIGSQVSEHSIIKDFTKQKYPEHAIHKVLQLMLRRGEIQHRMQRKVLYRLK
T1 sequence (Q14566 whole entry, further chain): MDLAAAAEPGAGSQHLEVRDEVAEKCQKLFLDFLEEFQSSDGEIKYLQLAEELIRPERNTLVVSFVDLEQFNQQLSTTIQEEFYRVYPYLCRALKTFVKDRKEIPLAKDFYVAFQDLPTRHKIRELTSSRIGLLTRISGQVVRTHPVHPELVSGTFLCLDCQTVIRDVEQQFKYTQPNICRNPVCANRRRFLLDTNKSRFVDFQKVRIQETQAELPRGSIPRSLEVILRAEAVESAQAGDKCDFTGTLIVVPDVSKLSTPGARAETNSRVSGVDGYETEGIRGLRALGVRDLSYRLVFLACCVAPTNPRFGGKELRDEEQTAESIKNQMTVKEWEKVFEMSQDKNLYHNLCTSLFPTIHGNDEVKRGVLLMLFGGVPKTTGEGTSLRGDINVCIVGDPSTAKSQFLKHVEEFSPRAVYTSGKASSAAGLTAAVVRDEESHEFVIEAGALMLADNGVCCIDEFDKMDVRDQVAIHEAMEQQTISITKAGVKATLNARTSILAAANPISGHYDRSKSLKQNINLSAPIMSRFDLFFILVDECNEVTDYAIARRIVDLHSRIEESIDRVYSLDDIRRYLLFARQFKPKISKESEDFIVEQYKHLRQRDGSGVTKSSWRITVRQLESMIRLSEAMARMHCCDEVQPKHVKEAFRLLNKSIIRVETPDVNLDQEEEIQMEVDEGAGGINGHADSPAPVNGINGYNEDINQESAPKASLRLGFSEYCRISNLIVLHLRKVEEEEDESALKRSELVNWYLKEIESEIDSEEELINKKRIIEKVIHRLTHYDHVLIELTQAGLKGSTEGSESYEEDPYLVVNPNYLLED
T1 sequence (P33993 whole entry, further chain): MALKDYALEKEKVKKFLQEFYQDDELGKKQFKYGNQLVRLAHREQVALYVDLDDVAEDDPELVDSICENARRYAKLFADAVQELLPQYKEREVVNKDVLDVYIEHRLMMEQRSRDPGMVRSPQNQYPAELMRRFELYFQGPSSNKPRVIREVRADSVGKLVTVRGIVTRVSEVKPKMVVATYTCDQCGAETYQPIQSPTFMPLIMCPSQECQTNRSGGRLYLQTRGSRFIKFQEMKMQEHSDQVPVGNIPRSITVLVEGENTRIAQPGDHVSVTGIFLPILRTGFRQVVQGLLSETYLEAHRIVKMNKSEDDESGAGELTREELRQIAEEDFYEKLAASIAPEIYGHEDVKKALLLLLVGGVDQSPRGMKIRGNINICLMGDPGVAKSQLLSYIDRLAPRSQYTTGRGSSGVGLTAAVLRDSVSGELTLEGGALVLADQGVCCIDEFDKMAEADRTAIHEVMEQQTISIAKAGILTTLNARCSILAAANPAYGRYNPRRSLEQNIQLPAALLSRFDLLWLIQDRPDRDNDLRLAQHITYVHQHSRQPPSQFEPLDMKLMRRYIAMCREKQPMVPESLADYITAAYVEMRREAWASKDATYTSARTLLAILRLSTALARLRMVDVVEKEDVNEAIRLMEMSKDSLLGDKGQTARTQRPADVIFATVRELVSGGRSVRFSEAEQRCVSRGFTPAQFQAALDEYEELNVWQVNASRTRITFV

CO[C@@H]1[C@@H](OC(=O)c2ccc(C)[nH]2)[C@@H](O)[C@H](Oc2ccc3c(O)c(NC(=O)c4c[nH]c(C(=O)Nc5c(O)c6ccc(O[C@@H]7OC(C)(C)[C@H](OC)[C@@H](OC(=O)c8ccc(C)[nH]8)[C@H]7O)c(C)c6oc5=O)c4C)c(=O)oc3c2C)OC1(C)C [CA1]
doses required to inhibit HSP90 (HSP90): 700 to 1000 µM
IC50 (HaCaT cells; Homo sapiens, HaCaT): ~15 µM
hCMG helicase inhibition in secondary strand-displacement assay ([1]; 500 μM compound): effective hCMG helicase inhibitors
inhibition of hCMG helicase activity, SAR set ([1]; 500 μM compound): potently inhibit the hCMG
hCMG helicase activity inhibition ([1]; fork-unwinding, ~15 fmol hCMG, 0.5 mM ATP): 100%
mode of inhibition of hCMG helicase activity ([1]; role: inhibitor, CA1 2.5 μM, increasing ATP): classic ATP-competitive mechanism

CO[C@@H]1[C@@H](OC(N)=O)[C@@H](O)[C@H](Oc2ccc3c(O)c(NC(=O)c4ccc(O)c(CC=C(C)C)c4)c(=O)oc3c2C)OC1(C)C [novobiocin]
doses required to inhibit HSP90 (HSP90): 700 to 1000 µM
effect on HaCaT viability (HaCaT cells): little effect on viability
inhibition of hCMG helicase activity, SAR set ([1]; 500 μM compound): only a small level of inhibition
